Converted amounts (≈) assume the structure as drawn.
Tests used:
leukemia L1210 [1] = assay: leukemia L1210 ascites cells injected intraperitoneally, survival and non-takes (Table II); type: in vivo, mice; conditions: daily i.p. 40 mg./Kg.; for Non-takes: groups of 10 mice, 10% DMSO control 1/10; for Mean survival days: 10% DMSO control 10.1; for Survival days: individual mice
Experimental: v. A suspension of leukaemic cells from DBA2 mice heavily infected with leukemia L1210 is obtained by removing ascites from the peritoneal cavity. The ascitic fluid is diluted in saline and injected intraperitoneally at a level of 10^6 cell into groups of BDFi females.
Stock solutions of each of the dl, d and l isomers of 1,2-bis(3,5-dioxopiperaxin-1-yl)propane in dimethylsulphoxide (DMSO) are prepared and kept frozen. The solutions are thawed each morning and an aliquot diluted 10-fold with saline. Daily intraperitoneal injections of the three diluted solutions into groups of 10 mice are started on the day after innoculation of the leukaemic cells at a daily dosage level of 40 mg./Kg. (equivalent to 0.5 to 1.0 ml of solution per injection). A control group of mice is injected daily with a similar volume of 10% DMSO in saline.
In general, the deaths of mice in any group occur within a few days of each other. If one or more members of a group survive 5 days longer than any other of their companions, injections are stopped and if these mice survive a further 5 days they are classed as failures of transplantation. This is merely an objective criterion of a situation which is visually obvious; the "non-Takes" typically looking sleek and healthy and having no tumor at the inoculation site nor having their bellies swollen with ascitic fluid.

Sarcoma 180 (S180) = assay: implanted tumor Sarcoma 180, mean tumor weight; type: in vivo, mice
Experimental: (§1) ii. Mice having implanted tumors Sarcoma 180 and Adenocarcinoma 755, and rats having the implanted tumor Walker 256, are treated with 1,2-bis(3,5-dioxopiperazin-1-yl) ethane. The compound is administered by intraperitoneal injection of a suspension of the substance in isotonic saline containing 1/2% (w/v) carboxymethyl cellulose. The mice are dosed with 30 mg. of active substance per kilo daily for 5 out of 8 days, and their tumors are exercised and weighed. The rats are given one dose only of 400 mg. per kilo and maintained without further treatment for 8 days when their tumors are also removed and weighed. Compared with control animals typical Treated/Control values of mean tumor weight for the S180 and Ca 755 tumors are in the range of 5-10%, and for the Walker tumors of the order of 20%.
iii. In tests with tumor S180 similar to those described under (ii) typical Treated/Control values of mean tumor weight for dl-1,2-bis(3,5-dioxopiperazin-1-yl) butane and meso-2,3-bis(3,5-dioxopiperazin-1-yl) butane are 84% at 30 mg./Kg. and 22% at 0.25 mg./Kg. respectively.

[2] = test system: secondary mouse fibroblast cultures; assay: inhibition of 3H-thymidine incorporation (rate of DNA synthesis) in mammalian cell cultures; type: cell-based; conditions: 22 hours incubation; for inhibition at 0.3 µg/mL: 0.3 μg./ml.; for inhibition at 1 µg/mL: 1 μg./ml.; for inhibition at 3 µg/mL: 3 μg./ml.; for inhibition at 200 µg/mL: 200 μg./ml.
Experimental: The overall effects of various compounds on the rate of synthesis of DNA is mammalian cell cultures are determined with the method of Birnie and Simons (Experimental Cell Research, 1967, 46, 355) by measuring the changes in the amount of ^3 H-thymidine incorporated in 1 hour by secondary mouse fibroblast cultures which have been incubated with a particular compound for 22 hours.
Typical results illustrating the degree of inhibition of ^3 H-thymidine incorporation for the treated fibroblasts as compared with untreated fibroblasts are given in Table I. The results obtained can be regarded as a measure of cytotoxicity and correlate well with results obtained with implanted tumors in mice.

physchem = conditions: water
Text: Although the invention is restricted to one stereoisomeric form as far as certain compounds are concerned, others can exist in different stereoisomeric forms, thus the cyclo-butane analogue (I,R1 R2 = C2 H4) can exist in a trans form and also a cis form.

leukemia L1210 [3] = assay: leukemia L1210 implanted mice, survival time; type: in vivo; conditions: for Treated/Control value of survival time, L1210: similar to (ii)
Experimental: Mice implanted with leukemia L1210 are treated as described above with 30 mg. of active substance per kilo for a continuing period until all the animals succumb.

[4] = survival and weight gain of treated S180 tumor-bearing mice; type: in vivo; conditions: fed at 30 mg./Kg. on 5 out of 8 days
leukemia L1210 [5] = assay: inter-cerebrally implanted leukemia L1210; type: in vivo
[6] = stability of aqueous salt solutions; type: physicochemical; conditions: acid solution plus disodium hydrogen phosphate, pH 5.7; injection within 1 hour of preparation recommended
Experimental: When the compounds are to be formulated as salts, preferred formulations are prepared with methane sulphonic acid, isethionic acid, tartaric acid and other solubilizing acids. Salts thus formed are frequently difficult to isolate in view of the weak basicity of some of the parent compounds but their aqueous solutions, after adjustment to physiologically acceptable pH with buffers, are stable for extended periods of time. Solutions of similar strength, i.e., 0.5% (w/v), are also obtainable with hydrochloric acid.
iv. The product of Example 2 (0.548 g.) is added to 5 ml. of a 0.4N solution of (1) hydrochloric acid, (2) isethionic acid, (3) methane sulphonic acid, or (4) tartaric acid, and the mixture is made up to 100 ml. by the addition of water. The solution so obtained is added to an aqueous solution of disodium hydrogen phosphate (0.2M, 10 ml.) to provide a stable solution having a pH of 5.7. Injection of the solution within 1 hour of preparation is recommended.

[7] = test system: lymphosarcomas, fibrosarcomas, carcinomas, lymphoblastic leukemias and Hodgkin's disease; assay: trials in human patients with various forms of cancer; type: in vivo; conditions: some previously treated unsuccessfully with other drugs or radiotherapy
[8] = test system: tumours and other forms of cancer; assay: anti-cancer / biological activity, general statement; conditions: for biological activity of d and l forms compared with racemic dl mixture: each substantially free from the other and from the dl form
[9] = test system: Adenocarcinoma 755 (Ca 755); assay: implanted tumor Adenocarcinoma 755, mean tumor weight; type: in vivo; conditions: mice, i.p., 30 mg. per kilo daily for 5 out of 8 days
Experimental: as §1

Walker 256 = assay: implanted tumor Walker 256, mean tumor weight; type: in vivo; conditions: rats, i.p., one dose of 400 mg. per kilo, 8 days
Experimental: as §1

metastases = assay: inhibition of metastases; conditions: in vivo

In the case of `CC(CN1CC(=O)NC(=O)C1)N1CC(=O)NC(=O)C1` (racemic) [dl-1,2-bis(3,5-Dioxopiperazin-1-yl)propane], the “% Increase of survival time over controls” value (from here on “% Increase of survival time”) (leukemia L1210 [1]) is reported as 86%, the Non-takes (leukemia L1210 [1]) is reported as 0/10 and the Mean survival days (leukemia L1210 [1]) is reported as 18.8 days. For the same compound, the Survival days (leukemia L1210 [1]; listed as dl-) was 25 days, the “Treated/Control value for mean tumor weight, S180” value (Sarcoma 180 (S180); mice, fed at 30 mg./Kg. on 5 out of 8 days) was 7% and the inhibition at 0.3 µg/mL [2] was 15%. For the same compound, the inhibition at 1 µg/mL [2] was 48%, the inhibition at 5 µg/mL ([2]; 5 μg./ml.) was 63% and the solubility (physchem) was ~1000 µg/mL (≈ 3.73 mM). The “Treated/Control value for survival time, L1210” value (leukemia L1210 [3]; intraperitoneal, 30 mg./Kg. daily until death) was 257%, the “Treated/Control value for survival time, L1210” value (leukemia L1210 [3]; orally, 75 mg./Kg.) was 157% and the “Treated/Control value for survival time, L1210” value (leukemia L1210 [3]; subcutaneous, 30 mg./Kg. daily until death) was 223%. The survival of animals [4] was “all the animals surviving”, the weight gain ([4]; controls 29%) was 12% and the “effectiveness against inter-cerebrally implanted leukemia L1210” value (leukemia L1210 [5]; in vivo) was “effective”. For the same compound, the “ability to cross the blood-brain barrier” value (leukemia L1210 [5]; indicated by effect on inter-cerebrally implanted L1210) was “indicative of the ability of the compound to cross the blood-brain barrier”, the stability of solution [6] was “stable” and the “regression and palliation of cancers in patients” value [7] was “significant regression and palliation of the cancers”.
For `C[C@H]([C@@H](C)N1CC(=O)NC(=O)C1)N1CC(=O)NC(=O)C1` (relative stereo) [dl-2,3-bis(3,5-dioxopiperazin-1-yl)butane, reference compound], the “anti-cancer activity, in words” value [8] was “essentially inactive”, the “Treated/Control value of mean tumor weight, S180” value (Sarcoma 180 (S180); 30 mg./Kg., similar to (ii)) was 84% and the inhibition at 3 µg/mL [2] was 3%. The inhibition at 13 µg/mL ([2]; 13 μg./ml.) was 26% and the “Treated/Control value of survival time, L1210” value (leukemia L1210 [3]; 30 mg./Kg.) was 80%.
`O=C1CN([C@@H]2CC[C@H]2N2CC(=O)NC(=O)C2)CC(=O)N1` (relative stereo) [trans-1,2-bis(3,5-Dioxopiperazin-1-yl)cyclobutane] showed an inhibition at 3 µg/mL [2] of 22% and an inhibition at 67 µg/mL ([2]; 67 μg./ml.) of 60%.
For `O=C1CN(CCN2CC(=O)NC(=O)C2)CC(=O)N1` [1,2-bis(3,5-dioxopiperazin-1-yl)ethane, 1,2-bis(3,5-Dioxopiperazin-1-yl)ethane], the “Treated/Control value of mean tumor weight, Ca 755” value [9] was 5-10%, the “Treated/Control value of mean tumor weight, Walker” value (Walker 256) was ~20% and the “Treated/Control value of mean tumor weight, S180” value (Sarcoma 180 (S180); mice, i.p., 30 mg. per kilo daily for 5 out of 8 days) was 5-10%. For the same compound, the inhibition at 0.3 µg/mL [2] was 21% and the inhibition at 8 µg/mL ([2]; 8 μg./ml.) was 69%.
In the case of `CC(CN1CC(=O)NC(=O)C1)N1CC(=O)NC(=O)C1` (centres unmarked) [1,2-bis(3,5-dioxopiperazin-1-yl)propane], the inhibition of metastases (metastases) is reported as “marked degree of inhibition of metastases”.
For `C[C@@H](CN1CC(=O)NC(=O)C1)N1CC(=O)NC(=O)C1` [d-1,2-bis(3,5-Dioxopiperazin-1-yl)propane], the “biological activity of d and l forms compared with racemic dl mixture” value [8] was “no substantial difference in biological activity”, the “% Increase of survival time” value (leukemia L1210 [1]) was 93% and the Non-takes (leukemia L1210 [1]) was 0/10. It also gave a Mean survival days (leukemia L1210 [1]) of 19.5 days, a Survival days (leukemia L1210 [1]; listed as d-) of 26 days and an inhibition at 1 µg/mL [2] of 44%. It also gave an inhibition at 200 µg/mL [2] of 74%.
For `O=C(O)CN(CCN(CC(=O)O)CC(=O)O)CC(=O)O` [ethylene diamine tetra-acetic acid, reference compound], the “anti-cancer activity, in words” value [8] was “lack of activity”.
With `C[C@H](CN1CC(=O)NC(=O)C1)N1CC(=O)NC(=O)C1` [l-1,2-bis(3,5-Dioxopiperazin-1-yl)propane] the “biological activity of d and l forms compared with racemic dl mixture” value [8] was “no substantial difference in biological activity”, the “% Increase of survival time” value (leukemia L1210 [1]) was 99% and the Non-takes (leukemia L1210 [1]) was 0/10. The Mean survival days (leukemia L1210 [1]) was 20.1 days, the Survival days (leukemia L1210 [1]; listed as l-) was 26 days and the inhibition at 1 µg/mL [2] was 52%. The inhibition at 200 µg/mL [2] was 72% and the solubility (physchem) was ~11000 µg/mL (≈ 41 mM).
With `C[C@H]([C@H](C)N1CC(=O)NC(=O)C1)N1CC(=O)NC(=O)C1` [meso-2,3-bis(3,5-Dioxopiperazin-1-yl)butane] the “anti-cancer activity, in words” value [8] was “significant activity”, the “Treated/Control value of mean tumor weight, S180” value (Sarcoma 180 (S180); 0.25 mg./Kg., similar to (ii)) was 22% and the inhibition at 0.002 µg/mL ([2]; 0.002 μg./ml.) was 19%. The inhibition at 0.01 µg/mL ([2]; 0.01 μg./ml.) was 72%, the inhibition at 1 µg/mL [2] was 78% and the “Treated/Control value of survival time, L1210” value (leukemia L1210 [3]; 0.25 mg./Kg.) was 165%.

Source: patent publication US3941790A, “Bis diketopiperazines” (National Research Development Corporation, priority 1967, dated 1976)
